For the experiment, the system named is S. cerevisiae SKN7-toxicity growth rescue, plate reader. Briefly: SKN7 mediated toxicity in Saccharomyces cerevisiae, growth rescue counterscreen, dose confirmation (AID 624258;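 further: growth read after three days of incubation at 30 °C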). (In general: The purpose of a counterscreen is to sort out artefacts and off-target activity.)

Activity calls are given as the source filed them. How the calls were made is not given here. A value given as a limit tells only on which side of the number the result lay.

With `O=C(COC(=O)c1ccc([N+](=O)[O-])o1)NCc1ccc(F)cc1`, the AC40 is 6690 nM. For `O=C(CSc1ccc(-c2ccccn2)nn1)c1ccccc1`, the AC40 is 1220 nM. For `COC1=C(OC)C(=O)C(Sc2ccc3ccccc3c2)=CC1=O` the value was 6520 nM.

With `CC1CC(C)CN(C(=O)c2cccc(S(=O)(=O)Nc3cc(C(F)(F)F)ccc3Cl)c2)C1` (centres undefined), the AC40 is 16800 nM. For the compound `O=C(C1=C(Nc2ccccc2)c2ccccc2S(=O)(=O)N1)c1ccccc1`, the AC40 is 2510 nM. With `Cc1ccc(C2(c3ccc(C)cc3)CC2C(=O)Nc2ccc([N+](=O)[O-])cc2O)cc1` (centres undefined), the AC40 was 6780 nM. For `CCCc1cc(-c2n[nH]c(=S)n2-c2cccc(C)c2)cs1` the value was 17000 nM; for `CC1(C(=O)OCC(=O)Nc2ccc3ccccc3c2)CC1(Cl)Cl` (centres undefined), 17600 nM. For `O=c1nc(N/N=C/c2ccccn2)cn[nH]1`, the AC40 was 4690 nM. For `Cc1cccc(C(=O)NC(=S)NNC(=O)Cc2ccccc2)c1` the value was 1220 nM; for `CCc1nc2ccccc2c(=O)n1NC(=O)c1c(O)c2ccccc2n(CC)c1=O`, 2090 nM. For `Cc1ccccc1CSCCNC(=O)COc1ccc(Cl)cc1` the value was 7180 nM; for `Cc1ccc2oc(-c3ccccc3)c(C(=O)O)c(=O)c2c1`, 1260 nM; for `Cc1nn(CCO)c(N)c1C1(O)C(=O)Nc2c(Cl)cc(Cl)cc21` (centres undefined), 18500 nM. Next, `O=c1c(O)cccc2cc(O)c(O)c(O)c12`: 2270 nM; `Cc1onc(-c2ccccc2)c1C(=O)NC(=S)NNC(=O)c1cc(-c2ccc(F)cc2)n[nH]1`: 2100 nM. Consider `O=c1cnn([C@@H]2O[C@H](CO)[C@@H](O)[C@H]2O)c(=O)[nH]1`, for which the AC40 is 882 nM. For `CC(C)(C)C(=O)C(Cl)C(=O)Nc1ccccc1` (centres undefined) the value was 2170 nM; for `CCCC1CCC(c2ccc(/C(N)=N/O)cc2)CC1` (centres undefined), 476 nM. `O=C1C=C(Nc2ccccc2O)c2ccccc2C1=O`: the AC40 is 12600 nM. Next, `CCNc1nc(N)nc(-c2cc(Cl)ccc2O)n1`: 2170 nM. Next, `COc1cccc(/C=N/Nc2ncnc(Cl)c2N)c1O`: 3720 nM. For `COc1ccc(N=NC2=C(O)CC(C)(C)CC2=O)c(OC)c1` the value was 306 nM. Consider `N#C/C(=C\c1cccnc1)c1ccc(Br)cc1`, for which the AC40 is 15900 nM. Next, `Cc1nc2ccc(NC(=O)COc3cccc(F)c3)cc2s1`: 1430 nM; `Cn1nc(C(F)(F)F)c(C#N)c1N1CCN(c2ccccc2)CC1`: 17600 nM.

For the compound `COc1ccc(CNc2ncnc3sccc23)cc1`, the AC40 is 14600 nM. For `CCOC(=O)C1=C(Cc2ccc(OC)cc2)C(=O)c2ccccc2C1=O` the value was 2670 nM; for `CCC(Oc1ccccc1)C(=O)Nc1ncc([N+](=O)[O-])s1` (centres undefined), 668 nM; for `Cc1ccc([C@@H]2CC=C(C(=O)O)[C@H](c3ccc(Br)cc3)N2S(=O)(=O)c2ccccc2C)cc1`, 5390 nM. Take `O=C(C=Cc1cccc(O)c1)c1ccccc1O`: the AC40 is 1430 nM. Consider `Cc1nn2c(-c3ccncc3)nnc2c2ccccc12`, for which the AC40 was > 6800 nM (inactive). With `c1ccc(Cn2cc(-c3cccnc3)cn2)cc1`, the AC40 is 1460 nM. Turning to `O=C1C=C(c2ccccc2)C(=O)N1Nc1ccccc1`, the AC40 was 1150 nM. `O=[N+]([O-])c1ccc(O)c(/C=N/Nc2ccccn2)c1`: the AC40 was 1420 nM.

For the compound `Cc1cc2oc(=O)cc(-c3ccccc3)c2c(C)c1-c1ccc(CO)cc1`, the AC40 was 4670 nM. With `COc1ccccc1N(C)S(=O)(=O)c1ccc(Cl)c(C(=O)NNC(=O)c2ccccc2O)c1`, the AC40 is 1950 nM. Regarding `COc1cc2c(c(OC)c1OC)-c1ccc(O)c(=O)cc1[C@@H](N)CC2`, the AC40 is 936 nM. For the compound `CC1S/C(=C(\C#N)C(=O)NCc2ccco2)N(Cc2ccco2)C1=O` (centres undefined), the AC40 is > 19500 nM (inactive).

Regarding `c1cncc(-c2nnc(-c3cccnc3)nn2)c1`, the AC40 was 8280 nM. On to `CCCCC(=O)NC(c1ccc(OC)c(OC)c1)c1ccc2cccnc2c1O` (centres undefined), for which the AC40 is 1000 nM. In the case of `Cc1ccc(CCNc2ncnc(Cl)c2N)cc1`, the AC40 was 3870 nM.

On to `Cc1cccc(N2CCN(C(=O)C3CCCCC3)CC2)c1C`, for which the AC40 is 19300 nM. Next, `CC(=O)c1c(C)oc2c1C(=O)c1ccccc1C2=O`: 1920 nM; `Cc1cccc(C)c1NC(=O)c1nc(S(=O)(=O)Cc2ccccc2)ncc1Cl`: 7570 nM; `COc1cc(OC)c(-c2c3cc(O)c(=O)cc-3oc3cc(O)c(O)cc23)cc1OC`: 1570 nM.

For the compound `O=C(O/N=C(\c1ccccc1)c1ccncc1)c1ccccc1Cl`, the AC40 was 9260 nM. For the compound `COc1ccc(N=N/C(=C\O)C(=O)c2cccs2)cc1`, the AC40 is 1320 nM.

As to `COc1ccc(-c2csc(NC(=O)c3ccccc3F)c2C(=O)O)cc1`, the AC40 is 644 nM.

On to `Cc1nnc(N=c2ssnc2Cl)o1`, for which the AC40 was 832 nM. For `O/N=C/c1cc(Br)ccc1OCc1cccc(F)c1` the value was 5830 nM; for `Clc1cccc(N/N=C(\Cc2nc3ccccc3[nH]2)c2ccccc2)c1`, 2610 nM; for `CC(C)CN(C(=O)c1cccc(S(=O)(=O)N2CCN(Cc3ccccc3)CC2)c1)C1CCS(=O)(=O)C1` (centres undefined), 8010 nM. For `CCOC(=O)c1ccc(N2C(=O)CC(N(C)CCc3ccc(OC)c(OC)c3)C2=O)cc1` (centres undefined) the value was 4820 nM; for `COc1ccc2c(c1)OC[C@H]1[C@H]2N2C(=O)c3cc(OC)ccc3NC(=O)[C@@]2(C)[C@H]1c1ccccc1`, 9310 nM.

As to `CCOC(=O)c1c(-c2ccccc2)oc2ccc(O)cc12`, the AC40 is 10400 nM. Next, `O=C(CSc1ccc(-c2ccccn2)nn1)NC1CCCCC1`: 16100 nM; `Cc1ccc2c(C)c3ccc4ccccc4c3c[n+]2c1`: 247 nM. Next, `Cc1oc2c(c1C(=O)c1ccc(Cl)cc1)C(=O)C(=O)c1ccccc1-2`: 1270 nM.

Turning to `CC(C)(C)n1nc(-c2ccc(Cl)cc2)c2c(N)ncnc21`, the AC40 is 12600 nM. Next, `CCCCCCCCCCn1c2c(c(=N)c3c1CCC3)CCC2`: > 6800 nM (inactive); `O=c1c(=Nc2ccccc2O)c(=O)c2ccccc12`: 1060 nM. Next, `Cc1cc(C)c(OCC(=O)Nc2nc(-c3ccccn3)cs2)c(C)c1`: 562 nM; `Clc1ccc(OCc2nc(-c3ccncc3)no2)c(Br)c1`: 950 nM; `O=C(NC1=CC(=O)c2ccccc2C1=O)c1ccccc1`: 3180 nM. Next, `COc1ccccc1-c1cc(C(F)(F)F)nc(S(C)(=O)=O)n1`: 1710 nM; `Fc1ccc(CCNC(=S)Nc2ccc(F)c(Cl)c2)cc1`: 3700 nM.

Take `CC(NCCN(C)C)C1CCC2C3CCc4cc(O)ccc4C3CCC12C` (centres undefined): the AC40 is 126 nM. For `COC(=O)c1ccc(N2C(=O)CC(N(C)CCc3ccc(OC)c(OC)c3)C2=O)cc1` (centres undefined) the value was 8600 nM; for `O=S(=O)(Nc1nc2ccccc2nc1N1CCN(c2ccccn2)CC1)c1ccc(Cl)cc1`, 818 nM; for `c1c[nH]c(CN2CCN(Cc3ncc[nH]3)CC2)n1`, 1700 nM.

`O=C(Nc1ccc(Cl)c(Cl)c1)C1CCCCC1`: the AC40 was 565 nM. Consider `COc1cccc(-n2nc(C#N)c(Cl)cc2=O)c1`, for which the AC40 was 2080 nM.

For `CC(C)CN=Cc1c(O)c([N+](=O)[O-])cc2oc3c(c12)CCCC3`, the AC40 is 1250 nM.

The values are drawn from PubChem BioAssay AID624258 (Broad Institute, 2012).
